Results reported in patent publication US20060167083A1, “Therapeutic methods and compositions involving isoflav-3-ene and isoflavan structures” (priority 2002, published 2006).

How the values were obtained:
Type in all cases: biochemical
human topo II = target: T1, human topo II (Homo sapiens, UniProt P11388); test: Topo II-mediated plasmid linearisation assay
T1 construct: purchased Topogen (Columbus, Ohio)
Description: FIG. 3 represents an assay for determining the effect of dehydroequol on double-stranded DNA cleavage. pRYG DNA was incubated with ten units of human topo II (lanes 2-6) in the absence (lane 1) or presence of 10, 30, or 100 μg/ml dehydroequol (lanes 2-4), or 30 μg/ml genistein (lane 5), or 10 μg/ml VP-16 (lane 6). Lane 7, linear pUC8 DNA marker. Double-strand DNA breakage was determined by converting relaxed (REL) or supercoiled (SC) pRYG DNA to the linear (LIN) form.
A linearisation assay was employed to determine if dehydroequol is a topo II poison. Double-strand breakage results in the appearance of linear DNA. […] This effect, which was evident at 10 μg/ml, peaked at 30 μg/ml.
Topo II poisons enhance topo II-mediated DNA cleavage and can be identified with the linearisation assay under the reaction conditions provided by the supplier of the enzyme (Topogen, Inc.). Briefly, 20-μl reaction mixtures contained 30 mM Tris-HCl, pH 7.6, 3 mM ATP, 15 mM β-mercaptoethanol, 8 mM MgCl2, 60 mM NaCl, 1 μl of the test agent (or solvent), 0.3 μg of pRYG, and 10 units of human topo II (added last). After a 15-min incubation at 37° C., SDS-proteinase K was added, and following a 15 min incubation at 37° C., samples were extracted with CHCl3-isopropanol and electrophoresis was performed on a 1% agarose gel containing ethidium bromide. Gels were photographed, and photographic negatives were scanned.

human topo I [1] = target: T2, human topo I (Homo sapiens, UniProt P11387); test: Topo I-mediated plasmid relaxation assay; conditions: 10 μg/ml
T2 construct: purchased Topogen (Columbus, Ohio)
T2 sequence (P11387 1-765): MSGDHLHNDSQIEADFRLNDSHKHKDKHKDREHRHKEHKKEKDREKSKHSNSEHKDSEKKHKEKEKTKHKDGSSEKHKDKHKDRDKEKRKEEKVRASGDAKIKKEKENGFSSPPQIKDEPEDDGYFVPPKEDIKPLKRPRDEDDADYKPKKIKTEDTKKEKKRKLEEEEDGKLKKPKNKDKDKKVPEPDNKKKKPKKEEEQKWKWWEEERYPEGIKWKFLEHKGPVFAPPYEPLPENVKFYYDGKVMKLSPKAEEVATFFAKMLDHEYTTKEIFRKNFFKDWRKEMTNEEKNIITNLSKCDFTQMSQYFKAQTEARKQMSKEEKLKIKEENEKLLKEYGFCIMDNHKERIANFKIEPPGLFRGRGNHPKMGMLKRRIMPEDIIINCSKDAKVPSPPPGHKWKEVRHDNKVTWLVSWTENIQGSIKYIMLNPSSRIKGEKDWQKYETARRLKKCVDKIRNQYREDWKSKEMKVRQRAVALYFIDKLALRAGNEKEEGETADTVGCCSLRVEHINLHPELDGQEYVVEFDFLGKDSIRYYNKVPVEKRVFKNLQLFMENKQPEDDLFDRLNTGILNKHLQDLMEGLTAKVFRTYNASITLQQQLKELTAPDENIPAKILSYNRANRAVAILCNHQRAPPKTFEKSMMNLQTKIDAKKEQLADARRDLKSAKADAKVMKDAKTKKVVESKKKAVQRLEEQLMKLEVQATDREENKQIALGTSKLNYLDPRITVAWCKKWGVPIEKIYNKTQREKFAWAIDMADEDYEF
Description: Topo I activity was determined by converting supercoiled pUC8 DNA (SC) into its relaxed from (REL).
For the determination of topoisomerase (topo) I catalytic activity, pUC8 DNA was used as the substrate in a reaction volume of 20 μl containing the following: 10 mM Tris-HCl, pH 7.9, 1 mM EDTA, 150 mM NaCl, 0.1% BSA, 0.1 mM spermidine, 5% glycerol, and 2 units of purified human topo I. The inhibitor, when applicable, was added as indicated, and the reaction was initiated by the addition of the enzyme. Reactions were carried out at 37° C. for 30 min. Gel electrophoresis was performed at 4 V/cm for 5 h in Tris-borate-EDTA buffer. For the quantitative determination of topo I activity, photographic negatives were scanned. The area representing supercoiled DNA, migrating as a single band at the bottom of the gel, was determined. The concentrations of the inhibitor that prevented 50% of the supercoiled DNA from being converted into relaxed DNA (IC50 values) were determined by averaging the data from at least three experiments.

human topo I [2] = target: T2, human topo I; test: Topo I-mediated plasmid-nicking assay; conditions: 10 and 100 μg/ml (FIG. 4 lanes 5 and 6)
Description: Single-strand DNA breakage was determined by converting relaxed (REL) or supercoiled (SC) pUC8 DNA to the nicked form (NIC).
Under the electrophoretic conditions that were used in the experiment shown in FIG. 4, covalently closed circular (supercoiled or relaxed) plasmid DNA migrates on the bottom of the gel. In the presence of a topo I poison that stabilises the cleavable complex, and following denaturation and degradation of the enzyme with proteinase K/SDS, the resulting nicked DNA migrates on the top of the gel.
Topo I poisons enhance topo I-mediated pUC8 DNA cleavage under the reaction conditions provided by the supplier of the enzyme (Topogen, Inc.). Briefly, 20 μl of reaction mixtures contained 10 mM Tris-HCl, pH 7.5, 1 mM EDTA, 100 mM NaCl, 1 μl of the test agent (or solvent), 0.5 μg of pUC8, and 10 units of human topo I (added last). After a 30-min incubation at 37° C., SDS-proteinase K was added, and, following a 30-min incubation at 37° C., samples were extracted with CHCl3-isopropanol and electrophoresed on a 1% agarose gel containing 0.5 μg/ml ethidium bromide. Gels were photographed, and photographic negatives were scanned.

T1 sequence (P11388 whole entry): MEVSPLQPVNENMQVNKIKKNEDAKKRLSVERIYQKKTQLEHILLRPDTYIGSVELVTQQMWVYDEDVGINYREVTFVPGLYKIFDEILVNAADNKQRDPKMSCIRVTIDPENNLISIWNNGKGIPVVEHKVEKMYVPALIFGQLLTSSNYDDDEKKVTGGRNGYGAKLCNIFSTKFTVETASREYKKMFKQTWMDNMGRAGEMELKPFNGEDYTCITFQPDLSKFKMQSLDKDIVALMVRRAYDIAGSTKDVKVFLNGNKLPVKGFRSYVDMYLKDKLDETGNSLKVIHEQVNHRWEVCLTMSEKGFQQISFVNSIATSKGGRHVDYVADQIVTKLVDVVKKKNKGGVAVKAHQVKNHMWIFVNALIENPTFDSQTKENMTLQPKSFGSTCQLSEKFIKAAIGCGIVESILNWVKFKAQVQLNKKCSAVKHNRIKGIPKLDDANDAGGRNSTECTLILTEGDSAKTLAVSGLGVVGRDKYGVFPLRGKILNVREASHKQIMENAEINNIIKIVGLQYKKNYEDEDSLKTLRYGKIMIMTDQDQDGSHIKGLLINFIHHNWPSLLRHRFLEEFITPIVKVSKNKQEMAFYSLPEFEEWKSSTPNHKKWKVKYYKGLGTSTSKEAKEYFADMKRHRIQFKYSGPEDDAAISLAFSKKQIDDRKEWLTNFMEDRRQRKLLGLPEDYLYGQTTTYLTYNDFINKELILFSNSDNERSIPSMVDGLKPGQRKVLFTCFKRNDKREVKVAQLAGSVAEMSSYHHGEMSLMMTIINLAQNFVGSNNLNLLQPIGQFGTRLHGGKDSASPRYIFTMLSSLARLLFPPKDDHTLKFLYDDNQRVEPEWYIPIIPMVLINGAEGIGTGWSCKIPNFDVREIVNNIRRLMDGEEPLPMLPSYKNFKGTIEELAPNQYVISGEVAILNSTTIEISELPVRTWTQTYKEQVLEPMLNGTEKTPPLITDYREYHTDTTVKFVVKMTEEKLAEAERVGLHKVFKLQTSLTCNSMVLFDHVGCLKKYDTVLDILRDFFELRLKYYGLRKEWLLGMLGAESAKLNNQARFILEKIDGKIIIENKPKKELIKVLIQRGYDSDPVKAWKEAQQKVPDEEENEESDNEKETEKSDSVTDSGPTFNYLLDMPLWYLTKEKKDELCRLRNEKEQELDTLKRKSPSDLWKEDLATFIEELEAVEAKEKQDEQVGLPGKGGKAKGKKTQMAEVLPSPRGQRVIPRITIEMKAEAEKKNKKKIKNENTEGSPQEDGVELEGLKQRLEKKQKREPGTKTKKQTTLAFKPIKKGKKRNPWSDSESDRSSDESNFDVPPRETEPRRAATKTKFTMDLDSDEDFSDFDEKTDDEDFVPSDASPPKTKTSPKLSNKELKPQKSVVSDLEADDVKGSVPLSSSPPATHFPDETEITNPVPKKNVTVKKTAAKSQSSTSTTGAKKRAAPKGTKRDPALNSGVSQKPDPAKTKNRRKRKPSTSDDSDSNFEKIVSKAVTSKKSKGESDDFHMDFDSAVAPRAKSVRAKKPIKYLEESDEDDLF

Row | concentration producing detectable (comparable) topo II-mediated linear plasmid DNA (human topo II) [µg/mL] | SMILES | inhibition of topo I-catalysed relaxation of pUC8 DNA (positive control) (human topo I [1]) | topo I-mediated single-strand DNA breakage (nicked DNA), positive control (human topo I [2])
1 | 30 | O=c1c(-c2ccc(O)cc2)coc2cc(O)cc(O)c12 [genistein, reference compound] |  | 
2 |  | CC[C@@]1(O)C(=O)OCc2c1cc1n(c2=O)Cc2cc3ccccc3nc2-1 [Camptothecin, reference compound] | prevents pUC8 DNA relaxation | produced single-strand DNA cleavage
